In data set [1] the test system is AR. Set-up: method as in ToxCast. To be noted: ref ToxCast, cited from earlier work; for ToxCast conclusion from assays result: AR sheet; for ToxCast 1: (Active assays), number of positive assays / assays run: ToxCast AR assays.
In data set [2] the target is T1, AR (Homo sapiens, UniProt P10275).
T1 sequence (P10275 1-920): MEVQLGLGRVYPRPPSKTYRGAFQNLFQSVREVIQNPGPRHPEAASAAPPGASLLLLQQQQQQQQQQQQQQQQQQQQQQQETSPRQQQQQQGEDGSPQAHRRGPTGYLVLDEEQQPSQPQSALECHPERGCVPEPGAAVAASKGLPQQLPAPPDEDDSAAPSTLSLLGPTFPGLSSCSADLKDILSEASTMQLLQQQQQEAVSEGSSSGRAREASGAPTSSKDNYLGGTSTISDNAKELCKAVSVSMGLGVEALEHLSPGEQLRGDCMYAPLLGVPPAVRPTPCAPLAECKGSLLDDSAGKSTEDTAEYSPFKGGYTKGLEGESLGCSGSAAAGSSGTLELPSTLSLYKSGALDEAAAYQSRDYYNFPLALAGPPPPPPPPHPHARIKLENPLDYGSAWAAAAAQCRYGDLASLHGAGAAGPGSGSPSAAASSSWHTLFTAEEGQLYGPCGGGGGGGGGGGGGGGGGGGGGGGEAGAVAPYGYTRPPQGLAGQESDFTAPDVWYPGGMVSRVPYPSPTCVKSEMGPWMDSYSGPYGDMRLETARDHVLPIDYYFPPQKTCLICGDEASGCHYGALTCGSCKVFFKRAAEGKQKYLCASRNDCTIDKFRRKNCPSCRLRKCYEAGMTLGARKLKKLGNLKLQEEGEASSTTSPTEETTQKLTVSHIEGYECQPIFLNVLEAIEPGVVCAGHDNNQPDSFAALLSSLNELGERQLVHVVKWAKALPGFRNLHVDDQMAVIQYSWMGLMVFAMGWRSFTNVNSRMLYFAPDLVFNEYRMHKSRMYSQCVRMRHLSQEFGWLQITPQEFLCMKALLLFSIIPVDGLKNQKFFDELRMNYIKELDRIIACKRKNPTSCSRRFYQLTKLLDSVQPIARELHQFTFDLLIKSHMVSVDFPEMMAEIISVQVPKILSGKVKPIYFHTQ
As to the kind of experiment: (anti-)AR CALUX receptor transactivation assay. The format is cell-based. Also noted: expressed in transfected cells; host or cells: CALUX cells (U2-OS is named only for the cytotoxicity CALUX). As for the experimental part: (§1) The human CALUX® assays were used to measure the impact of test compounds on estrogen and androgen pathways. […] Chemicals can activate (or inactivate, in the case of an antagonistic activity) a ligand-specific pathway by binding to the receptor (ER, AR), after which the receptor-ligand complex binds to specific DNA REs […], resulting in increased (or decreased) cellular expression of a marker protein (e.g., luciferase).
(§2) Chemicals were dissolved and diluted in DMSO. […] The cytotoxicity of each test chemical was assessed using the U2-OS based cytotoxicity CALUX bioassay. Concentrations causing >20% reduction of luminescence were considered cytotoxic. […] Luciferase production was quantified by measuring luminescence following addition of luciferin. For antagonist assays, a fixed concentration of receptor agonist was co-incubated with a range of concentrations of the test chemical. […] For the AR assays, dihydrotestosterone was the positive control for agonistic effects and flutamide was the positive control for antagonist effects.
(§3) Each test chemical was tested in triplicates in two independent experiments.

Data set [3] concerns AR. The note with it: AR pathway model; ref Kleinstreuer et al (2017) 10.1021/acs.chemrestox.6b00347; cited from earlier work.
In data set [4] the test system is ER. Set-up: method as in Browne, et al (2015). The note with it: ref Browne, et al (2015), cited from earlier work; for ToxCast Pathway Model (AUC): as agonist where given, value above 0.1 = significant interaction.
Data set [5] has as its target human AR (Homo sapiens, UniProt P10275). As to the kind of experiment: AR radioligand ([3H]methyltrienolone) receptor-binding assay.
Protocol: Binding to ER and AR was conducted using standard methods for radioligand assays (Kurata et al. [2005]; Zava et al. [1979]).
The chemicals were tested for their ability to bind to different targets. In radioligand assays, targets included the binding affinity to human (non-selective) ER and human AR (Kurata et al. 2005; Zava et al. 1979). Chemicals were incubated at 10 µM with cells overexpressing ER or AR for 24 h at 4°C, after which, the binding of the radiolabeled ligand ([^3H]estradiol for ER and [^3H]methyltrienolone for AR) was measured by liquid scintillation counting. An increase or decrease higher than 50% were considered to represent significant effects. […] Receptor binding was calculated as a % inhibition of the binding of a radioactively labeled ligand specific for each target.
Each test chemical was tested in a single assay in duplicate.
The test system of data set [6] is ER. Set-up: method as in US EPA ToxCast. The note with it: ref US EPA ToxCast, cited from earlier work; for ToxCast 1: (Active assays), ER assay listed as active: each listed assay name = active-flagged assay.
Data set [7] concerns the target T1, AR. As to the kind of experiment: YAS (Yeast androgen screen) assay, agonist and antagonist mode.
Protocol: (§4) The YES/YAS XL (Xtra Lyticase) assay kit from Xenometrix AG (Allschwil, Switzerland) was conducted according to the Supplier’s instructions.
(§5) In the YES assay, human ERα is integrated in the yeast (Saccharomyces cerevisiae) chromosome, and for the YAS assay human AR is integrated (Routledge and Sumpter 1996; Sohoni and Sumpter 1998). […] This enzyme then converts a yellow substrate to a purple metabolite, which can be measured colorimetrically.
(§6) Growing yeast cells stably transformed with either hERα (YES) or hAR (YAS) and a β-galactosidase reporter system were exposed to a range of concentrations of each test compound. […] The positive control chemicals for agonistic effects were 17-β estradiol for YES and 5α-dihydrotestosterone for YAS. […] A combination of a fixed concentration of positive control and a range of concentrations of each test chemical were tested. The cells were incubated with each treatment for 18 h at 31°C. The cells were lysed in the presence of the yellow β-galactosidase-substrate, chlorophenol red-β-D-galactopyranoside (CPRG). Yeast cell growth was assessed prior to addition of the lysis buffer by measuring the absorbance at 690 nm. The production of the red metabolite of CPRG was determined by measuring the absorbance at 570 nm. It was corrected for diffraction by cells and debris by a simultaneous measurement at 690 nm. The results were evaluated for estrogenic and androgenic agonistic and antagonistic activity, as well as for yeast growth inhibition or cytotoxicity.
(§7) An IR value ≥ IR10 in the YES or YAS agonist assay indicates an agonistic effect (IR10 is defined as the IR which is 10% of (IR max - IR solvent) above the IR solvent. An IR value ≤ IR50 in the YES or YAS antagonist assay indicates a possible antagonistic effect (IR50 is defined as 50% of (IR control - IR solvent), where the IR control is at the corresponding fixed concentration of agonist used: 3.3 × 10^-10 M 17-β estradiol and 3.3 × 10^-9 M 5α-dihydrotestosterone, respectively). […]
In data set [8] the test system is H295R cells. As to the kind of experiment: H295R steroidogenesis assay (oestrogen and androgen production). The format is cell-based, human. To be noted: for minimal effective concentration: Homo sapiens, NCI-H295R, 48 h. The procedure:
The in vitro H295R Steroidogenesis Assay is based on the human adenocarcinoma cell line, NCI-H295R, in which the human steroidogenesis pathway is fully functional (OECD 2022). The effect of the test chemical on the production of 17β-estradiol and testosterone is measured using ERα CALUX and AR CALUX technology.
The test chemical was tested in two independent assays, each in triplicate.

For data set [9], the target named is T2, ERα (Homo sapiens, UniProt P03372).
T2 sequence (P03372 1-595): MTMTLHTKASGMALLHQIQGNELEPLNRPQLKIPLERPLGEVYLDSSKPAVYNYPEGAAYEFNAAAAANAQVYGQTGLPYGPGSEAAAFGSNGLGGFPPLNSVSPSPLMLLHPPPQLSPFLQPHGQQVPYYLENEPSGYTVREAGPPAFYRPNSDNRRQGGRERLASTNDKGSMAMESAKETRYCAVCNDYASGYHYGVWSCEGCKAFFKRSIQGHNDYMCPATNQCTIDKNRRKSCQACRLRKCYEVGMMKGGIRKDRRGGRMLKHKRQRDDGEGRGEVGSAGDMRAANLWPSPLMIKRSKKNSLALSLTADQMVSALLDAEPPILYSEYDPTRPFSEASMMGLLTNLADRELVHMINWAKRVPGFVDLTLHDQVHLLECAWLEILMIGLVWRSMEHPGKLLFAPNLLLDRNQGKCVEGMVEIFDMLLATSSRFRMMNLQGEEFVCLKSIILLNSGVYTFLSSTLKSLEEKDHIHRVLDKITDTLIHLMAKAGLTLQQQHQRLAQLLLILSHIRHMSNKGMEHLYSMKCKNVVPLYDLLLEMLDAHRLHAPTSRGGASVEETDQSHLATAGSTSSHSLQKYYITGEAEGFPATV
As to the kind of experiment: (anti-)ERα CALUX receptor transactivation assay. The format is cell-based. Also noted: expressed in transfected cells; host or cells: CALUX cells (U2-OS is named only for the cytotoxicity CALUX). The procedure:
as §1, §2, §3

Data set [10] concerns the target T2, ERα. As to the kind of experiment: YES (Yeast oestrogen screen) assay, agonist and antagonist mode. To be noted: YES agonist assay; duplicates in two independent experiments.
Protocol: as §4, §5, §6, §7
Where [11] appears, read: read-out: Steroidogenesis Androgenicity LEC.
The mark [12] stands for this setting: read-out: Steroidogenesis Estrogenicity LEC.

Like-named read-outs stand apart in the source and are kept apart here.

By inhibition is commonly meant the percentage by which the read-out fell short of the control. Consider `CC(C)(C)CC(C)(C)c1ccc(O)cc1` [4-TO, 4-tert-octylphenol], for which the “ToxCast conclusion from assays result” value in data set [1] and in data set [6] was “Endocrine Disruption Potential.Significant Estrogen Receptor activity seen” throughout. In [2], the “LEC, AR antagonism” value was found to be 0.44 µM. For the same molecule, the “ToxCast Pathway Model (AUC)” value in data set [3] is recorded as “AUC = 0.23 as agonist, then there is a significant interaction”; in data set [4] it was 0.393. Moreover, in [4], the “ToxCast Pathway Model interaction” value was “significant interaction”. Moreover, the AR binding outcome in data set [5] is “significant binding”. For the same molecule, the inhibition at 10 µM in [5] (read-out: inhibition of control specific binding to the AR) stood at 10%. For the same molecule, the “ToxCast 1: (Active assays), positive/total ER assays” value in [6] is 20/21 positive. Moreover, the “outcome in the YAS assay” value in [7] (agonist and antagonist) is “negative”. Moreover, in data set [7] (highest concentrations tested), the “toxicity to yeast (decrease in the yeast cell growth)” value was “toxic at the highest concentrations tested”. Also, in data set [8] (setting [11]), the minimal effective concentration was more than 1 µM.
Turning to `CCCCN(CCCC)c1ccc(C(=O)c2ccccc2C(=O)O)c(O)c1` [DBABA, 2-[4-(dibutylamino)-2-hydroxybenzoyl]benzoic acid], the “ToxCast conclusion from assays result” value in data set [1] and in data set [6] was “Endocrine Disruption Potential.Significant Estrogen Receptor activity seen” in each case. Besides, the “ToxCast 1: (assays Comments)” value in [1] (TOX21_AR_BLA_Antagonist_ratio) is listed as “Only highest concentration above the baseline”. Also, in data set [1] (TOX21_AR_BLA_Antagonist_viability), the “efficacy (assays Comments)” value is recorded as “Boarderline: less than 50% efficacy (26.5%)”. Besides, the “ToxCast 1: (Active assays), number of positive assays / assays run” value in data set [1] is reported as 2/8 positive. Besides, the “outcome in the AR transactivation assay” value in data set [2] is given as “negative”. Also, the AR binding outcome in data set [5] is “did not bind to the AR”. The “ToxCast 1: (Active assays), ER assay listed as active” value is listed as “TOX21_ERa_BLA_Antagonist_ratio” in data set [6] (assay TOX21_ERa_BLA_Antagonist_ratio) and “TOX21_ERa_BLA_Antagonist_viability” in data set [6] (assay TOX21_ERa_BLA_Antagonist_viability). Moreover, the “ToxCast 1: (Active assays), positive/total ER assays” value in [6] was 2/6 positive. The “AR antagonism in the YAS assay” value in data set [7] (YAS antagonist assay) is recorded as “inconclusive”. In addition, the minimal effective concentration in data set [8] (setting [11]) and in data set [8] (setting [12]) was more than 10 µM throughout.
Turning to `O=c1c(-c2ccc(O)cc2)coc2cc(O)ccc12` [Daidzein, daidzein], the “Lowest Effective Concentration (LEC), ER agonism” value in data set [9] was 0.1 µM. Further, the “ToxCast conclusion from assays result” value in [1] and in [6] was “Endocrine Disruption Potential.Significant Estrogen Receptor activity seen” throughout. Further, the “efficacy (assays Comments)” value in data set [1] (TOX21_AR_LUC_MDAKB2_Agonist) is “Boarderline: less than 50% efficacy (20.8%)”. The “ToxCast 1: (Active assays), number of positive assays / assays run” value in data set [1] was 2/15 positive. Besides, the “outcome in the AR transactivation assay” value in data set [2] is reported as “negative”. Moreover, the “ToxCast Pathway Model (AUC)” value in data set [3] is “AUC = 0, then there is no significant interaction”; in [4] it was 0.44. Moreover, in data set [4], the “ToxCast Pathway Model interaction” value is “significant interaction”. In addition, in [5], the AR binding outcome is on record as “did not bind to the AR”. Moreover, in data set [10], the “ER agonism in the YES assay” value was “positive”. For the same molecule, the figures for the minimal effective concentration in data set [8] (setting [11]) and in [8] (setting [12]) were 0.794 µM and more than 3.16 µM, respectively. Also, in data set [8] (decrease), the “LEC, androgen production” value was 0.77 µM. In data set [8] (highest concentration tested, 100 µM), the “androgen production, fold of control” value was 0.06 fold of control.
As to `C[C@]12CCC(=O)C[C@@H]1CC[C@@H]1[C@@H]2CC[C@@]2(C)[C@H]1CC[C@]2(C)O` [Mestanolone, mestanolone, reference compound], the “Lowest Effective Concentration (LEC), ER agonism” value in data set [9] stood at 0.028 µM. In addition, the “ToxCast conclusion from assays result” value in data set [1] and in data set [6] was “Endocrine Disruption Potential.Significant Estrogen Receptor activity seen” in each case. Also, the “ToxCast 1: (assays Comments)” value in [1] (TOX21_AR_BLA_Agonist_ratio) and in [1] (TOX21_AR_LUC_MDAKB2_Agonist) was “High active” throughout. For the same molecule, the “ToxCast 1: (Active assays), number of positive assays / assays run” value in [1] is recorded as 2/6 positive. Also, the “ToxCast 1: (Comments)” value in data set [6] (for the assay named in the same line) was “High active”. Moreover, the “ToxCast 1: (Active assays), positive/total ER assays” value in data set [6] is on record as 2/6 positive. For the same molecule, in data set [10], the “ER agonism in the YES assay” value is “positive”. Moreover, the minimal effective concentration is more than 0.00316 µM in data set [8] (setting [11]) and more than 0.1 µM in [8] (setting [12]).

These data come from article PMC10761396, “Evaluation of new alternative methods for the identification of estrogenic, androgenic and steroidogenic effects: a comparative in vitro/in silico study” (Archives of Toxicology, 2023).
